Data published in article PMC5218480 (PLoS ONE, 2017).

System: MV-4-11 cells
Experiment: Gene expression microarray analysis (Affymetrix PrimeView) and GSEA
Format: cell-based, human
Parameters: RFU PODN (11730768_x_at) / Fold change /veh PODN (11730768_x_at) / RFU LINC00158 (11744669_a_at) / Fold change /veh LINC00158 (11744669_a_at) / RFU DUSP10 (11751237_a_at) / Fold change /veh DUSP10 (11751237_a_at) / RFU ID3 (11757404_x_at) / Fold change /veh ID3 (11757404_x_at) / RFU PLEKHG5 (11737974_s_at) / Fold change /veh PLEKHG5 (11737974_s_at) / RFU LRRC4B (11730491_at) / Fold change /veh LRRC4B (11730491_at) / RFU GIMAP4 (11747438_a_at) / Fold change /veh GIMAP4 (11747438_a_at) / RFU KRT8 (11758183_x_at) / Fold change /veh KRT8 (11758183_x_at) / RFU CNN1 (11734310_a_at) / Fold change /veh CNN1 (11734310_a_at) / RFU VPS37D (11726825_at) / Fold change /veh VPS37D (11726825_at) / RFU C10orf10 (11716522_x_at) / Fold change /veh C10orf10 (11716522_x_at) / RFU KIR2DL2 /// KIR2DL4 /// KIR2DL5A /// KIR2DL5B /// KIR2DS1 /// KIR2DS2 /// KIR2DS3 /// KIR2DS4 /// KIR3DL3 /// KIR3DL3 /// KIR3DS1 (11738374_at) / Fold change /veh KIR2DL2 /// KIR2DL4 /// KIR2DL5A /// KIR2DL5B /// KIR2DS1 /// KIR2DS2 /// KIR2DS3 /// KIR2DS4 /// KIR3DL3 /// KIR3DL3 /// KIR3DS1 (11738374_at) / RFU C1QL1 (11718748_at) / Fold change /veh C1QL1 (11718748_at) / RFU TMPRSS4 (11747572_a_at) / Fold change /veh TMPRSS4 (11747572_a_at) / RFU HAMP (11756126_x_at) / Fold change /veh HAMP (11756126_x_at) / RFU RNFT2 (11725882_a_at) / Fold change /veh RNFT2 (11725882_a_at) / RFU NR4A2 (11747474_a_at) / Fold change /veh NR4A2 (11747474_a_at) / RFU ABCC12 (11746883_a_at) / Fold change /veh ABCC12 (11746883_a_at) / RFU TMEM136 (11760407_x_at) / Fold change /veh TMEM136 (11760407_x_at) / RFU CLDN22 /// WWC2 (11732394_at) / Fold change /veh CLDN22 /// WWC2 (11732394_at) / RFU HLA-DPB1 (11760878_x_at) / Fold change /veh HLA-DPB1 (11760878_x_at) / RFU SPINT1 (11716480_a_at) / Fold change /veh SPINT1 (11716480_a_at) / RFU GAP43 (11754022_s_at) / Fold change /veh GAP43 (11754022_s_at) / RFU A4GNT (11735810_at) / Fold change /veh A4GNT (11735810_at) / RFU PRB3 (11715151_x_at) / Fold change /veh PRB3 (11715151_x_at) / RFU TUBB4B (11761932_at) / Fold change /veh TUBB4B (11761932_at) / RFU CAPN14 (11732068_a_at) / Fold change /veh CAPN14 (11732068_a_at) / RFU TMCC2 (11721928_a_at) / Fold change /veh TMCC2 (11721928_a_at) / RFU IRGQ (11745062_a_at) / Fold change /veh IRGQ (11745062_a_at) / RFU FAM174B (11720279_a_at) / Fold change /veh FAM174B (11720279_a_at) / RFU TMPRSS4 (11748680_a_at) / Fold change /veh TMPRSS4 (11748680_a_at) / RFU FAM212B (11763350_a_at) / Fold change /veh FAM212B (11763350_a_at) / RFU PLEKHG5 (11743358_a_at) / Fold change /veh PLEKHG5 (11743358_a_at) / RFU ZSCAN30 (11745921_a_at) / Fold change /veh ZSCAN30 (11745921_a_at) / RFU CMKLR1 (11741424_a_at) / Fold change /veh CMKLR1 (11741424_a_at) / RFU LOC101060620 /// MAPK8IP1 (11723275_at) / Fold change /veh LOC101060620 /// MAPK8IP1 (11723275_at) / RFU SPTSSB (11747773_x_at) / Fold change /veh SPTSSB (11747773_x_at) / RFU PRSS12 (11739890_at) / Fold change /veh PRSS12 (11739890_at) / RFU BIN1 (11741810_x_at) / Fold change /veh BIN1 (11741810_x_at) / RFU WNT11 (11732464_a_at) / Fold change /veh WNT11 (11732464_a_at) / RFU C10orf10 (11716521_a_at) / Fold change /veh C10orf10 (11716521_a_at) / RFU C5orf56 (11738089_at) / Fold change /veh C5orf56 (11738089_at) / RFU CYB561 (11721691_x_at) / Fold change /veh CYB561 (11721691_x_at) / RFU ANKRD19P (11752326_a_at) / Fold change /veh ANKRD19P (11752326_a_at) / RFU OR2T12 /// OR2T33 /// OR2T8 (11738714_s_at) / Fold change /veh OR2T12 /// OR2T33 /// OR2T8 (11738714_s_at) / RFU VCAN (11748164_a_at) / Fold change /veh VCAN (11748164_a_at) / RFU JSRP1 (11732532_at) / Fold change /veh JSRP1 (11732532_at) / RFU KRTAP10-11 (11738290_x_at) / Fold change /veh KRTAP10-11 (11738290_x_at) / RFU MYO3A (11730013_a_at) / Fold change /veh MYO3A (11730013_a_at) / RFU EBF3 (11725865_a_at) / Fold change /veh EBF3 (11725865_a_at) / RFU CAMK2N1 (11719241_x_at) / Fold change /veh CAMK2N1 (11719241_x_at) / RFU C5orf56 (11738088_a_at) / Fold change /veh C5orf56 (11738088_a_at) / RFU OLFML3 (11715873_a_at) / Fold change /veh OLFML3 (11715873_a_at) / RFU LOC100653217 /// NTM (11731650_a_at) / Fold change /veh LOC100653217 /// NTM (11731650_a_at) / RFU MAPK11 (11762145_a_at) / Fold change /veh MAPK11 (11762145_a_at) / RFU FIZ1 (11724087_x_at) / Fold change /veh FIZ1 (11724087_x_at) / RFU OASL (11726364_x_at) / Fold change /veh OASL (11726364_x_at) / RFU SOX15 (11748057_x_at) / Fold change /veh SOX15 (11748057_x_at) / RFU CD79A (11719716_a_at) / Fold change /veh CD79A (11719716_a_at) / RFU HIST1H1D (11736915_at) / Fold change /veh HIST1H1D (11736915_at) / RFU CASKIN2 (11723855_a_at) / Fold change /veh CASKIN2 (11723855_a_at) / RFU LOC730098 (11760151_x_at) / Fold change /veh LOC730098 (11760151_x_at) / RFU OR4N2 (11742367_at) / Fold change /veh OR4N2 (11742367_at) / RFU PRRT2 (11749266_a_at) / Fold change /veh PRRT2 (11749266_a_at) / RFU SNX32 (11753110_a_at) / Fold change /veh SNX32 (11753110_a_at) / RFU CDHR5 (11726645_a_at) / Fold change /veh CDHR5 (11726645_a_at) / RFU RCAN1 (11760418_a_at) / Fold change /veh RCAN1 (11760418_a_at) / RFU FAM167A (11723789_a_at) / Fold change /veh FAM167A (11723789_a_at) / RFU FAM26E (11764081_at) / Fold change /veh FAM26E (11764081_at) / RFU ISYNA1 (11749810_s_at) / Fold change /veh ISYNA1 (11749810_s_at) / RFU ACY1 (11761880_at) / Fold change /veh ACY1 (11761880_at) / RFU 11764098_at / Fold change /veh 11764098_at / RFU SAMD14 (11745864_x_at) / Fold change /veh SAMD14 (11745864_x_at) / RFU NPB (11741838_a_at) / Fold change /veh NPB (11741838_a_at) / RFU TMPRSS6 (11731388_a_at) / Fold change /veh TMPRSS6 (11731388_a_at) / RFU KRTAP10-2 (11738614_at) / Fold change /veh KRTAP10-2 (11738614_at) / RFU ARHGAP8 /// PRR5-ARHGAP8 (11727945_x_at) / Fold change /veh ARHGAP8 /// PRR5-ARHGAP8 (11727945_x_at) / RFU KRTAP5-7 /// NADSYN1 (11734609_at) / Fold change /veh KRTAP5-7 /// NADSYN1 (11734609_at) / RFU RASL12 (11751679_a_at) / Fold change /veh RASL12 (11751679_a_at) / RFU CDKN2B (11736163_a_at) / Fold change /veh CDKN2B (11736163_a_at) / RFU PRF1 (11729649_at) / Fold change /veh PRF1 (11729649_at) / RFU, ZNF638 /// ZNF638-IT1 / Fold change vs veh, ZNF638 /// ZNF638-IT1 / RFU, PANK3 / Fold change vs veh, PANK3 / RFU, SH3YL1 / Fold change vs veh, SH3YL1 / RFU, ZEB2 / Fold change vs veh, ZEB2 / RFU, NRIP1 / Fold change vs veh, NRIP1 / RFU, PTTG1IP / Fold change vs veh, PTTG1IP / RFU, CAPN2 / Fold change vs veh, CAPN2 / RFU, MED14 / Fold change vs veh, MED14 / RFU, SNORA58 / Fold change vs veh, SNORA58 / RFU, C1orf63 / Fold change vs veh, C1orf63 / RFU, LRRFIP1 / Fold change vs veh, LRRFIP1 / RFU, NDUFAF7 / Fold change vs veh, NDUFAF7 / RFU, SLC12A2 / Fold change vs veh, SLC12A2 / RFU, IBTK / Fold change vs veh, IBTK / RFU, ESF1 / Fold change vs veh, ESF1 / Fold change vs veh, TMEM50B / RFU, TAOK1 / Fold change vs veh, TAOK1 / RFU, ACBD3 / Fold change vs veh, ACBD3 / RFU, TMA16 / Fold change vs veh, TMA16 / RFU, RWDD3 / Fold change vs veh, RWDD3 / RFU, BCAT1 / Fold change vs veh, BCAT1 / RFU, EDEM3 / Fold change vs veh, EDEM3 / RFU, TMEM33 / Fold change vs veh, TMEM33 / RFU, WDR75 / Fold change vs veh, WDR75 / RFU, AHCTF1 / Fold change vs veh, AHCTF1 / RFU, TFRC / Fold change vs veh, TFRC / RFU, ZDHHC17 / Fold change vs veh, ZDHHC17 / RFU, NOM1 / Fold change vs veh, NOM1 / RFU, ARL8B / Fold change vs veh, ARL8B / RFU, ZBTB11 / Fold change vs veh, ZBTB11 / RFU, TAMM41 / Fold change vs veh, TAMM41 / RFU, KIAA1704 /// LOC100996395 / Fold change vs veh, KIAA1704 /// LOC100996395 / RFU, ING1 / Fold change vs veh, ING1 / RFU, TRMT61B / Fold change vs veh, TRMT61B / RFU, FUBP3 / Fold change vs veh, FUBP3 / RFU, TP53 / Fold change vs veh, TP53 / RFU, TNKS2 / Fold change vs veh, TNKS2 / RFU, ZFP14 / Fold change vs veh, ZFP14 / RFU, ACTR2 / Fold change vs veh, ACTR2 / RFU, PPP3R1 / Fold change vs veh, PPP3R1 / RFU, PIK3R1 / Fold change vs veh, PIK3R1 / RFU, HNRNPA1 / Fold change vs veh, HNRNPA1 / RFU, RNF170 / Fold change vs veh, RNF170 / RFU, ZNF28 / Fold change vs veh, ZNF28 / RFU, RNGTT / Fold change vs veh, RNGTT / RFU, OGT / Fold change vs veh, OGT / RFU, BRD1 / Fold change vs veh, BRD1 / RFU, MARS / Fold change vs veh, MARS / RFU, ZNF655 / Fold change vs veh, ZNF655 / RFU, FAHD1 / Fold change vs veh, FAHD1 / RFU, BDP1 / Fold change vs veh, BDP1 / RFU, LRRCC1 / Fold change vs veh, LRRCC1 / RFU, ARID1A / Fold change vs veh, ARID1A / RFU, ZNF146 / Fold change vs veh, ZNF146 / RFU, ZNF330 / Fold change vs veh, ZNF330 / RFU, GPN3 / Fold change vs veh, GPN3 / RFU, C9orf123 / Fold change vs veh, C9orf123 / RFU, N4BP2L2 / Fold change vs veh, N4BP2L2 / RFU, ARFIP1 / Fold change vs veh, ARFIP1 / RFU, FAM179B / Fold change vs veh, FAM179B / RFU, BCL10 / Fold change vs veh, BCL10 / RFU, UHRF1BP1L / Fold change vs veh, UHRF1BP1L / RFU, BET1 / Fold change vs veh, BET1 / RFU, CNOT2 / Fold change vs veh, CNOT2 / RFU, ZNF268 / Fold change vs veh, ZNF268 / Fold change vs veh, ZNF507 / RFU, DGCR2 / Fold change vs veh, DGCR2 / RFU, WDSUB1 / Fold change vs veh, WDSUB1 / Fold change vs veh, HSP90B1 /// MIR3652 / RFU, ADSS / Fold change vs veh, ADSS / RFU, GK / Fold change vs veh, GK / RFU, ZNF148 / Fold change vs veh, ZNF148 / RFU, TAF9 / Fold change vs veh, TAF9 / RFU, SLC1A5 / Fold change vs veh, SLC1A5 / RFU, SLMO2 / Fold change vs veh, SLMO2 / RFU, ABCC4 / Fold change vs veh, ABCC4 / RFU, LOC101060439 /// RAP1B / Fold change vs veh, LOC101060439 /// RAP1B / RFU, RFX7 / Fold change vs veh, RFX7 / RFU, GTPBP10 / Fold change vs veh, GTPBP10 / RFU, CNEP1R1 / Fold change vs veh, CNEP1R1 / RFU, BIVM-ERCC5 /// ERCC5 / Fold change vs veh, BIVM-ERCC5 /// ERCC5 / RFU, ILF3 / Fold change vs veh, ILF3 / RFU 11762660_at / Fold change /veh 11762660_at / RFU VCAN (11757783_s_at) / Fold change /veh VCAN (11757783_s_at) / RFU DDX43 (11728927_at) / Fold change /veh DDX43 (11728927_at) / RFU KRT8 (11758188_x_at) / Fold change /veh KRT8 (11758188_x_at) / RFU NKD1 (11759106_at) / Fold change /veh NKD1 (11759106_at) / RFU SRD5A1 (11742802_a_at) / Fold change /veh SRD5A1 (11742802_a_at) / RFU TPSAB1 /// TPSB2 (11721975_s_at) / Fold change /veh TPSAB1 /// TPSB2 (11721975_s_at) / RFU GSTM3 (11746129_a_at) / Fold change /veh GSTM3 (11746129_a_at) / RFU IL23R (11737362_x_at) / Fold change /veh IL23R (11737362_x_at) / RFU TMEM51 (11727254_a_at) / Fold change /veh TMEM51 (11727254_a_at) / RFU PIWIL2 (11732686_x_at) / Fold change /veh PIWIL2 (11732686_x_at) / RFU ORM1 (11744905_x_at) / Fold change /veh ORM1 (11744905_x_at) / RFU CCDC152 (11743942_at) / Fold change /veh CCDC152 (11743942_at) / RFU ECM1 (11717891_a_at) / Fold change /veh ECM1 (11717891_a_at) / RFU IL23R (11748794_a_at) / Fold change /veh IL23R (11748794_a_at) / RFU TNFAIP8L3 (11732012_x_at) / Fold change /veh TNFAIP8L3 (11732012_x_at) / RFU MBOAT4 (11741988_at) / Fold change /veh MBOAT4 (11741988_at) / RFU 11764193_at / Fold change /veh 11764193_at / RFU TMEM53 (11763286_at) / Fold change /veh TMEM53 (11763286_at) / RFU MAGEB2 (11727129_at) / Fold change /veh MAGEB2 (11727129_at) / RFU TMEM200A (11744735_a_at) / Fold change /veh TMEM200A (11744735_a_at) / RFU CCDC152 (11751479_a_at) / Fold change /veh CCDC152 (11751479_a_at) / RFU FAM211A (11726209_a_at) / Fold change /veh FAM211A (11726209_a_at) / RFU RGS16 (11746705_a_at) / Fold change /veh RGS16 (11746705_a_at) / RFU VCAN (11755009_s_at) / Fold change /veh VCAN (11755009_s_at) / RFU RHOB (11743442_s_at) / Fold change /veh RHOB (11743442_s_at) / RFU RGS16 (11720943_a_at) / Fold change /veh RGS16 (11720943_a_at) / RFU RGS16 (11720944_at) / Fold change /veh RGS16 (11720944_at) / RFU, VPS4B / Fold change vs veh, VPS4B / RFU, CREB1 / Fold change vs veh, CREB1 / RFU, DNAJC13 / Fold change vs veh, DNAJC13 / RFU, GNAQ / Fold change vs veh, GNAQ / RFU, CDK5R1 / Fold change vs veh, CDK5R1 / RFU, ZRANB3 / Fold change vs veh, ZRANB3 / RFU, CUL4A / Fold change vs veh, CUL4A / RFU, CCNY / Fold change vs veh, CCNY / RFU, UFL1 / Fold change vs veh, UFL1 / RFU, COG3 / Fold change vs veh, COG3 / RFU, DIAPH2 / Fold change vs veh, DIAPH2 / RFU, SKA2 / Fold change vs veh, SKA2 / RFU, AFF3 / Fold change vs veh, AFF3 / RFU, LMF1 / Fold change vs veh, LMF1 / RFU, IPO11 / Fold change vs veh, IPO11 / RFU, DFFB / Fold change vs veh, DFFB / RFU, FOXP1 / Fold change vs veh, FOXP1 / RFU, CARD8 / Fold change vs veh, CARD8 / RFU, STRN3 / Fold change vs veh, STRN3 / RFU, ADK / Fold change vs veh, ADK / RFU, RASSF2 / Fold change vs veh, RASSF2 / RFU, WIPF1 / Fold change vs veh, WIPF1 / RFU, LARP1B / Fold change vs veh, LARP1B / RFU, RASA1 / Fold change vs veh, RASA1 / RFU, RB1 / Fold change vs veh, RB1 / RFU, PPFIA1 / Fold change vs veh, PPFIA1 / RFU, MAT2A / Fold change vs veh, MAT2A / RFU, CCT5 / Fold change vs veh, CCT5 / RFU, WDR92 / Fold change vs veh, WDR92 / RFU, CUX1 / Fold change vs veh, CUX1 / RFU, TTC7A / Fold change vs veh, TTC7A / RFU, TMEM135 / Fold change vs veh, TMEM135 / RFU, DEPTOR / Fold change vs veh, DEPTOR / RFU, CPM / Fold change vs veh, CPM / RFU, DNAJB6 / Fold change vs veh, DNAJB6 / RFU, CACNA2D3 / Fold change vs veh, CACNA2D3 / RFU, DTX4 / Fold change vs veh, DTX4 / RFU, TFCP2 / Fold change vs veh, TFCP2 / RFU, GMCL1 /// GMCL1P1 / Fold change vs veh, GMCL1 /// GMCL1P1 / RFU, AEBP2 / Fold change vs veh, AEBP2 / RFU, SNHG1 /// SNORD22 /// SNORD25 /// SNORD26 /// SNORD27 /// SNORD28 /// SNORD29 /// SNORD31 / Fold change vs veh, SNHG1 /// SNORD22 /// SNORD25 /// SNORD26 /// SNORD27 /// SNORD28 /// SNORD29 /// SNORD31 / Fold change (Aza/veh), C12orf56 (ProbeSet 11735607_a_at) / Fold change (ACY-1035/veh), C12orf56 (ProbeSet 11735607_a_at) / Fold change (Aza/veh), FGFR1OP (ProbeSet 11751329_s_at) / Fold change (ACY-1035/veh), FGFR1OP (ProbeSet 11751329_s_at) / Fold change (Aza/veh), VPS36 (ProbeSet 11739960_a_at) / Fold change (ACY-1035/veh), VPS36 (ProbeSet 11739960_a_at) / RFU SYPL1 (11715823_x_at) / Fold change /veh SYPL1 (11715823_x_at) / RFU IGFBP7 (11715501_s_at) / Fold change /veh IGFBP7 (11715501_s_at) / RFU REEP3 (11722064_at) / Fold change /veh REEP3 (11722064_at) / RFU IGLL1 (11728026_x_at) / Fold change /veh IGLL1 (11728026_x_at): dose or concentration left out as unconfirmed
Settings: MV-4-11 cells, 48 hours

## Nc1ccc(-c2cccs2)cc1NC(=O)c1ccc2c(c1)cc(C1CC1)n2CCN1CCOCC1 [ACY-1035]
  Fold change /veh EBF3 (11725865_a_at): 1.09
